In US9259409B2, “Compositions comprising a prostaglandin for treating neuropsychiatric conditions” (Inceptum Research & Therapeutics, Inc., priority 2011, dated 2016):

What was measured:
U87MG astrocytoma = assay: Immuno-slotblot assay for secreted BDNF, astrocytoma conditioned media; type: cell-based, human; conditions: 1 μM, 5 μM, 10 μM; astrocyte conditioned media; vs non-treated and DMSO
Description: Human embryonic kidney 293T (HEK293T) cells, U87MG astrocytoma and the human oligodendrocyte cell line MO3-13 were grown in Dubelco Minimal Eagle Media (DMEM) (Invitrogen, Carlsbad, Calif., USA) supplemented with 5% heat inactivated fetal bovine serum. Cells were grown to 70% confluence prior to treatment. HEK293T cells were treated individually with […] latanoprost, unoprostone, bimatoprost, fluprostenol, PGE2, and PGF2α in serum-free DMEM. Cells were exposed to drug for 3 hours at 37° C. in a 5% CO2 incubator. U87MG cells were grown to 70% confluence prior to treatment. […]
Cell culture media from cells that were not treated or treated with DMSO, 1, 5 or 10 μM latanoprost treated was collected in 15-mL screw cap polypropylene tubes from cell culture dishes. […] The relative amount of BDNF secreted by U87MG astrocytoma and MO3-13 oligodendrocyte cell lines were determined by an immune-slotblot method in which 200 μL of conditioned media was applied in triplicate to nitrocellulose membrane pre-wet in water in a Biodot (SF) ultrafiltration unit (Bio-Rad Laboratories, Mississauga, ON, Canada) under vacuum. […] After washing the membrane as above, the bound secondary antibody was detected by ECL Advance™ Western blot HRP substrate (GE Healthcare) using a ChemiDoc™ MP Imaging System (Bio-Rad Laboratories). The relative amount of BDNF was determined by using ImageLab™ software (BioRad). […]

U87MG cells = assay: Bipolar disorder biomarkers in glioblastoma U87 cell line (Western blot); type: cell-based, human; conditions: 1 μM, 5 μM, 10 μM, vs untreated cells
Description: Human embryonic kidney 293T (HEK293T) cells, U87MG astrocytoma and the human oligodendrocyte cell line MO3-13 were grown in Dubelco Minimal Eagle Media (DMEM) (Invitrogen, Carlsbad, Calif., USA) supplemented with 5% heat inactivated fetal bovine serum. Cells were grown to 70% confluence prior to treatment. HEK293T cells were treated individually with […] latanoprost, unoprostone, bimatoprost, fluprostenol, PGE2, and PGF2α in serum-free DMEM. Cells were exposed to drug for 3 hours at 37° C. in a 5% CO2 incubator. U87MG cells were grown to 70% confluence prior to treatment. Cells were treated with either DMSO vehicle (NT) or individually with 1, 5 and 10 μM latanoprost in DMEM lacking fetal bovine serum. Cells were exposed to treatments for 6 hours at 37° C. in a 5% CO2 incubator. The human oligodendrocyte cell line MO3-13 was grown and differentiated according to the methods described in McLaurin et al. (McLaurin, J., Trudel, G. C., Shaw, I. T., Antel, J. P., and Cashman, N. R., J. Neurobiol., 26: 283-293, 1995). On the third day of serum starvation, cells were treated with either DMSO vehicle (NT) or individually with 1, 5 and 10 μM latanoprost. Cells were exposed to treatments for 6 hours at 37° C. in a 5% CO2 incubator.
For detection of CREB and Serine-133 (S133)-phosphorylated CREB, serotonin receptor 5HT2A, TCF/LEF1, BDNF and TNF-total protein extracts were prepared from cell cultures using a sintered glass tissue homogenizer (Wheaton, Millville, N.J., USA) in phosphate-buffered saline (PBS), pH 7.5, 3M urea. For detection of β-catenin, cell cultures were washed with PBS, trypsinized, and pelleted at 1,000 rpm for 4 minutes. The cell pellets were washed and resuspended in cold hypotonic buffer consisting of 10 mM HEPES (pH 7.5), 1.5 mM MgCl2, 10 mM KCl, 0.5 mM DTT, and EDTA-free protease inhibitor (Roche, Laval, QC, Canada) in an ice bath for 5 minutes. The mixture was then homogenized using a dounce homogenizer and the cellular debris was pelleted by centrifugation at 4° C. Cytoplasmic fractions were recovered and used for assaying β-catenin.
Protein concentrations were determined by the Peterson method (Peterson, Analyt. Biochem., 83: 346-356, 1977). Proteins (20 μg/lane) were loaded onto SDS-polyacrylamide gels and separated by electrophoresis. Proteins in gels were transferred onto PVDF membranes and processed for antibody reactions. To detect CREB, S133-phosphorylated CREB, and GAPDH loading controls, antibodies were diluted in 2% ECL Advance™ blocking reagent (GE Healthcare, Mississauga, ON, Canada) and solubilized in PBS-Tween20. Membranes were probed overnight at 4° C. Membranes were washed four times with PBS-Tween20 and labeled for 1 hour at 20° C. with secondary antibodies conjugated to horseradish peroxidase (HRP). The membrane was washed four more times with PBS-Tween20 and HRP activity was developed using Advance™ chemiluminescence (ECL) reagent (GE Healthcare, Mississauga, ON, Canada) according to the manufacturer's instructions. PVDF membranes were exposed to X-ray film.
We next examined the effects of latanoprost treatment (1 μM, 5 μM, and 10 μM) on other bipolar disorder biomarkers in glioblastoma U87 cell line.

GSK-3 = assay: Glycogen deposition in fat body tissue of third instar larvae; type: cell-based, Drosophila melanogaster; conditions: 10 and 20 μM; vs vehicle (DMSO)
Description: GSK-3 also functions in glycogen deposition via an independent pathway to that of the Wnt/Wg signaling pathway. GSK-3 functions in the glycogen deposition pathway by phosphorylating and inactivating glycogen synthase, which catalyzes the rate-limiting step of glycogen synthesis. To further confirm that PG and PG derivatives inhibit GSK-3 activity, fat body tissue from third instar Drosophila melanogaster larvae was treated with vehicle (DMSO) or 10 and 20 μM latanoprost and the effects of drug treatment on glycogen accumulation was monitored.

CC(C)OC(=O)CCC/C=C\C[C@@H]1[C@@H](CC[C@@H](O)CCc2ccccc2)[C@H](O)C[C@@H]1O [latanoprost, propan-2-yl-(Z)-7-[(1R,2R,3R,5S)-3,5-dihydroxy-2-[(3R)-3-hydroxy-5-phenylpentyl]cyclopentyl]-hept-5-enoate]
amount of BDNF secreted (U87MG astrocytoma): increased significantly | levels of BDNF (U87MG cells): increased levels | levels of inflammatory cytokine TNF-α (U87MG cells): reduced levels | levels of serotonin receptor 5HT2A (U87MG cells): increased levels | levels of transcription factor TCF/LEF1 (U87MG cells): increased levels | phosphorylation at Ser133 on CREB (U87MG cells): increased levels | total level of CREB protein (U87MG cells): remaining relatively constant | glycogen accumulation in fat body tissue (GSK-3): increase in glycogen accumulation in a dosage-dependent manner
